Data: patent US20040224958A1, “Pyridopyrimidinone derivatives for treatment of neurodegenerative disease” (priority 2000, published 2004)

Legend:
[1] = biological target: cdk4/D (Homo sapiens, UniProt P11802); test: Cyclin-Dependent Kinase 4 (cdk4) Assay; type: biochemical; conditions: read-out: cdk4/D IC50
[2] = biological target: Cdk5/p25 (Homo sapiens, UniProt Q00535); test: Cyclin-Dependent Kinase 5 High Throughput Screening (cdk5-HTS) Assay; type: biochemical; conditions: high throughput screen
Method in brief: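 Cdk5/p25 (1.0 μg/mL) phosphorylates GST-RbCOOH (20 μg/mL) in 50 mM Tris pH 7.4 with 10 mM MgCl2 and 20 μM ATP spiked with [γ33P]ATP, 30 min at room temperature. After EDTA stop, substrate captured on glutathione-coated plates; 33P incorporation counted by scintillation; IC50 determined.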

[3] = biological target: cdk2/cyclinE (Homo sapiens, UniProt P24941); test: Cyclin-Dependent Kinase Assay cdk2/cyclinE; conditions: cdk2/E IC50
[4] = biological target: cdk2/cyclinA (Homo sapiens, UniProt P24941); test: Cyclin-Dependent Kinase Assay cdk2/cyclinA; conditions: cdk2/A IC50
[5] = biological target: cdc2/cyclinB (Homo sapiens, UniProt P06493); test: Cyclin-Dependent Kinase Assay cdc2/cyclinB
Sequence of cdc2/cyclinB (P06493 whole entry): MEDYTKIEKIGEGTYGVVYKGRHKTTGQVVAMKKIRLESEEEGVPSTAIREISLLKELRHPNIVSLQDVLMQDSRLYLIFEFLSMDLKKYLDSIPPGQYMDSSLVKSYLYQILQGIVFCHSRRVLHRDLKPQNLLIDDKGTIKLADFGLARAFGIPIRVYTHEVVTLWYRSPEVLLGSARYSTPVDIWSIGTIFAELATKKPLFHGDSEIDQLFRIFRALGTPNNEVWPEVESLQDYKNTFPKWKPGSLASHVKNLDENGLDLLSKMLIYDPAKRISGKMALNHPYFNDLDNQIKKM
Sequence of cdc2/cyclinB (P14635 whole entry, further chain): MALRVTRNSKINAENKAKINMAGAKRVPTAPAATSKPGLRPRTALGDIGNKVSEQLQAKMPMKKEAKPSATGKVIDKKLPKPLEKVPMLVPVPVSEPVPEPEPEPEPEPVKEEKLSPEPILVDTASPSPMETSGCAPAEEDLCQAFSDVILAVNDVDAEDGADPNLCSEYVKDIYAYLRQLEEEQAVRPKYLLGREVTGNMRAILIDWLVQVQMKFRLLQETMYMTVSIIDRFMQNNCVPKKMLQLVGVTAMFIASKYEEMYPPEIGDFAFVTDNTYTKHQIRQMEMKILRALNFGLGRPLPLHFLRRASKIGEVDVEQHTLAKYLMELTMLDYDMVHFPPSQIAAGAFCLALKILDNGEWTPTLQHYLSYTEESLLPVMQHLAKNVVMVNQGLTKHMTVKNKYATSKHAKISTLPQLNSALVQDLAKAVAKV

Sequence of cdk4/D (P11802 whole entry): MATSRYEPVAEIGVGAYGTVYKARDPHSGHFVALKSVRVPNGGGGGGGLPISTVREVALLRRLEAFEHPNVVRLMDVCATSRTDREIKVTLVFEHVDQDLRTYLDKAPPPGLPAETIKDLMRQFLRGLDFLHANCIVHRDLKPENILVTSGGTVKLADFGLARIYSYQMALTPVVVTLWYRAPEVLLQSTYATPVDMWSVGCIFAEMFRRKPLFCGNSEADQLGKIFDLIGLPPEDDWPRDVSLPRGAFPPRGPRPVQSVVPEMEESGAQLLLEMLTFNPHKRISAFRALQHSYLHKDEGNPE
Sequence of cdk4/D (P24385 whole entry, further chain): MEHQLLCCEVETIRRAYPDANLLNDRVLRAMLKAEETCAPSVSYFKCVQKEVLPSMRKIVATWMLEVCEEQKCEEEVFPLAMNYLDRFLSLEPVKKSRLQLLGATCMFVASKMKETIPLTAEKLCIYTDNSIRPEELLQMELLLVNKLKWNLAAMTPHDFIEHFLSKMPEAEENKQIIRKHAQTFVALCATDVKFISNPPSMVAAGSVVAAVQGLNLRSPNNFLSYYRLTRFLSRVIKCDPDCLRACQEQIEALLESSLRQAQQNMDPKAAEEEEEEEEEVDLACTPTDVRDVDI

| Compound | IC50 [1] | IC50 [2] | IC50 [3] | IC50 [4] | IC50 [5] |
| --- | --- | --- | --- | --- | --- |
| O=c1ccc2cnc(Nc3cc(F)cc(F)c3)nc2n1CC1CC1 [Example 575, 8-Cyclopropylmethyl-2-(3,5-difluoro-phenylamino)-8H-pyrido[2,3-d]pyrimidin-7-one] | 540 nM | 230 nM | 280 nM | 330 nM | 330 nM |
| O=c1ccc2cnc(Nc3ccc(F)c([N+](=O)[O-])c3)nc2n1CC1CC1 [Example 576, 8-Cyclopropylmethyl-2-(4-fluoro-3-nitro-phenylamino)-8H-pyrido[2,3-d]pyrimidin-7-one] | 420 nM | 410 nM | 460 nM | 490 nM | 650 nM |
| O=c1[nH]c2ccc(Nc3ncc4ccc(=O)n(CC5CC5)c4n3)cc2[nH]1 [Example 577, 8-Cyclopropylmethyl-2-(2-oxo-2,3-dihydro-1H-benzimidazol-5-ylamino)-8H-pyrido[2,3-d]pyrimidin-7-one] | 230 nM | 92 nM | 110 nM | 120 nM | 120 nM |
| O=c1ccc2cnc(Nc3cccc(O)c3)nc2n1CC1CC1 [Example 578, 8-Cyclopropylmethyl-2-(3-hydroxy-phenylamino)-8H-pyrido[2,3-d]pyrimidin-7-one] | 140 nM | 110 nM | 170 nM | 190 nM | 310 nM |
| CC1Nc2ccc(Nc3ncc4ccc(=O)n(CC5CC5)c4n3)cc2C1C (stereo not drawn) [Example 580, 8-Cyclopropylmethyl-2-(2,3-dimethyl-2,3-dihydro-1H-indol-5ylamino)-8H-pyrido[2,3-d]pyrimidin-7-one] | 550 nM | 130 nM | 130 nM | 270 nM | 79 nM |
| O=c1ccc2cnc(Nc3ccc4[nH]c5ccccc5c4c3)nc2n1CC1CC1 [Example 582, 2-(9H-Carbazol-3-ylamino)-8-cyclopropylmethyl-8H-pyrido[2,3-d]pyrimidin-7-one] | 660 nM | 190 nM | 250 nM | 440 nM | 280 nM |
| O=C1CSc2ccc(Nc3ncc4ccc(=O)n(CC5CC5)c4n3)cc2N1 [Example 584, 8-Cyclopropylmethyl-2-(3-oxo-3,4-dihydro-2H-1,4-benzothiazin-6-ylamino)-8H-pyrido[2,3-d]pyrimidin-7-one] | 98 nM | 39 nM | 100 nM | 140 nM | 170 nM |
| CC(=O)Nc1cc(Nc2ncc3ccc(=O)n(CC4CC4)c3n2)ccc1C [Example 585] | 210 nM | 450 nM | 320 nM | 180 nM | 340 nM |
| Cc1cc(Nc2ncc3ccc(=O)n(CC4CC4)c3n2)cc(C)c1O [Example 586, 8-Cyclopropylmethyl-2-(4-hydroxy-3,5-dimethyl-phenylamino)-8H-pyrido[2,3-d]pyrimidin-7-one] | 490 nM | 170 nM | 200 nM | 170 nM | 120 nM |
| O=c1ccc2cnc(Nc3ccc4c(c3)CCC4)nc2n1CC1CC1 [Example 587, 8-Cyclopropylmethyl-2-(indan-5-ylamino)-8H-pyrido[2,3-d]pyrimidin-7-one] | 200 nM | 160 nM | 81 nM | 440 nM | 360 nM |
| O=c1ccc2cnc(Nc3cc(F)c(F)c(F)c3)nc2n1CC1CC1 [Example 588, 8-Cyclopropylmethyl-2-(3,4,5-trifluoro-phenylamino)-8H-pyrido[2,3-d]pyrimidin-7-one] | 2600 nM | 260 nM | 100 nM | 670 nM | 710 nM |
| Cc1ccc(Nc2ncc3ccc(=O)n(CC4CC4)c3n2)cc1NS(C)(=O)=O [Example 592, N-[5-(8-Cyclopropylmethyl-7-oxo-7,8-dihydro-pyrido[2,3-d]pyrimidin-2-ylamino)-2-methyl-phenyl]-methanesulfonamide] | 200 nM | 230 nM | 71 nM | 310 nM | 430 nM |
